Test results reported in US20230414565A1, “COMPOSITIONS AND METHODS FOR TREATING HEMATOLOGICAL MALIGNANCIES” (Magenta Therapeutics, Inc., priority 2022, published 2023).
Read-outs that look alike come from different tables or passages of the source.

Key:
[1] = test system: hematopoietic stem and progenitor cell mobilization; details: U.S. Pat. Nos. 6,080,398 and 6,447,766; cited from earlier work
CD34+CD90+CD45RA− cells [2] = assay: Phase 1 clinical trial: mobilization of CD34+CD90+CD45RA− cells into peripheral blood, multicolor flow cytometry
Experimental: (§1) The dose of MGTA-145 was one of 0.0075 mg/kg, 0.015 mg/kg, 0.03 mg/kg, 0.075 mg/kg, 0.15 mg/kg, or 0.3 mg/kg. […] The dose of MGTA-145 was one of 0.015 mg/kg, 0.03 mg/kg, 0.075 mg/kg, or 0.15 mg/kg. […] The dose of MGTA-145 was one of 0.03 mg/kg or 0.075 mg/kg.
(§2) Mobilization of white blood cells (WBCs), neutrophils, lymphocytes, basophils, and eosinophils was quantified by automated hematology analyzer.

[3] = test system: graft cell subsets (T cells, B cells, NK cells, TNC); details: cited from earlier work
CD34+ cells [4] = assay: Phase 1 clinical trial: mobilization of CD34+ cells into peripheral blood, multicolor flow cytometry
CD34+ cells [5] = details: historical plerixafor alone data, Devine et al., Blood 2008; cited from earlier work
MMP-9 = assay: Phase 1 clinical trial: plasma MMP-9 and TIMP-1, sandwich immunoassay; assay type: in vivo, human; details: MGTA-145 monotherapy, all six doses
Experimental: (§3) Additionally, blood samples were analyzed by multicolor flow cytometry to quantify changes in expression of neutrophil activation markers such as L-selectin, CD11b, CD18, and CD66. Additionally, matrix metalloproteinase 9 (MMP-9), a neutrophil protease believed to mediate mobilization in response to MGTA-145, as well as its cognate inhibitor, TIMP-1, were quantified in plasma samples collected at the same time points by sandwich immunoassay.

CD34+ cells [6] = assay: Phase 1 Part D: apheresis collection yield of CD34+ cells
Experimental: as §1
(§4) The table documents the body weight of each subject, the total CD34+ cells that were obtained through the apheresis procedure, the normalized CD34+ cells/kg of body weight, and the percentage of CD34+ cells that were CD90+CD45RA−.

CD34+CD90+CD45RA− cells [7] = assay: Phase 1 Part D: apheresis collection of CD34+CD90+CD45RA− cells; details: for CD90+/kg (CD34+CD90+CD45RA− cells), mean / CD90+/kg (CD34+CD90+CD45RA− cells), median: 2 h stagger after plerixafor; for CD90+ (% of CD34+): 2 h stagger after plerixafor (Table 13)
Experimental: as §1, §4

[8] = Phase 1 clinical trial: treatment emergent adverse events; details: Part A; MGTA-145 0.0075-0.3 mg/kg, n = 24
CD45.2 mice = assay: Primary and secondary transplantation of mobilized mouse cells at limit dilution (CRU); assay type: in vivo; details: FIG. 25, right panel; versus the other cohorts
Text: Mice (CD45.1) were mobilized according to the scheme shown in FIG. 24 and mobilized cells transplanted into CD45.2 mice at limit dilution.

white blood cells (WBCs) = assay: Phase 1 clinical trial: mobilization of white blood cells, automated hematology analyzer; details: MGTA-145 monotherapy
Experimental: as §1, §2

CXCR2 = biological target: T1, CXCR2 (Homo sapiens, UniProt P25025); assay: Phase 1 clinical trial: CXCR2 expression on peripheral blood neutrophils; assay type: in vivo
T1 construct: endogenous in cells; host or cells: peripheral blood neutrophils of trial subjects
T1 sequence (P25025 1-360): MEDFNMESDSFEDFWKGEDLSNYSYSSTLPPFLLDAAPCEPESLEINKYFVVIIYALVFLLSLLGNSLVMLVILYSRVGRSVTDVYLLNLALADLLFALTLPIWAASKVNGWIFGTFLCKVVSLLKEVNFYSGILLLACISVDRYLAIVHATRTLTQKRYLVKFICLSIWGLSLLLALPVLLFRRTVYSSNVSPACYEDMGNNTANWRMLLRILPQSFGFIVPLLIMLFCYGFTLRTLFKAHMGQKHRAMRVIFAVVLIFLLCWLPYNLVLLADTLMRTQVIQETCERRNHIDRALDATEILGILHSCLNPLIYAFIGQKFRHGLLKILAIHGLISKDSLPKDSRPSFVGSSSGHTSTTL

neutrophils = assay: Phase 1 clinical trial: mobilization of neutrophils, automated hematology analyzer; details: MGTA-145 monotherapy
Experimental: as §1, §2

[9] = test system: neutrophil activation markers (L-selectin, CD11b, CD18, CD66); assay: Phase 1 clinical trial: neutrophil activation markers, multicolor flow cytometry; assay type: in vivo, human; details: MGTA-145 monotherapy
Experimental: as §3

[10] = G-CSF; Pulsiper et al. (2009) Blood; cited from earlier work
[11] = test system: neutrophil activation markers (L-selectin, CD11b, CD18, CD66); details: 5 days of G-CSF; Falanga et al., Blood 1999; cited from earlier work
[12] = Chen et al., 2019, 2 LP for plerixafor (N = 50+), 1 LP for G-CSF (N = 112+)
[13] = Devine et al, 2008, yield of 1 LP, plerixafor N = 24, G-CSF N = 8
[14] = Part B, pooled placebo + plerixafor on Day 1
[15] = Part C, pooled placebo + plerixafor on Day 1
[16] = Pooled B + C, pooled placebo + plerixafor on Day 1
[17] = plerixafor alone, MGTA-145 dose 0
[18] = MGTA-145 monotherapy 0.03 mg/kg
[19] = MGTA-145 monotherapy, the other doses
[20] = 0.03 mg/kg MGTA-145 and plerixafor (staggered 2 hour)
[21] = Part A, MGTA-145 on Day 1, 0.03 mg/kg
[22] = Part A, MGTA-145 on Day 1, 0.3 mg/kg
[23] = higher doses (0.075, 0.15, 0.3 mg/kg), 2 hours post administration
[24] = lower doses (0.0075, 0.015, 0.03 mg/kg), between 1 and 2 hours post administration
[25] = G-CSF, N = 78 healthy donors, Chaidos et al, Blood 2012

Gro-β T N65D: Gro-β T variant with aspartic acid in place of asparagine at position 65
Potency of hematopoietic stem and progenitor cell mobilization [1]: potency that is substantially greater than that of Gro-β T

c1cc(CN2CCCNCCNCCCNCC2)ccc1CN1CCCNCCNCCCNCC1 [plerixafor, 1,1′-[1,4-phenylenebis(methylene)]-bis-1,4,8,11-tetra-azacyclotetradecane]
Peak CD34+CD90+CD45RA− mobilization (median) (CD34+CD90+CD45RA− cells [2]; plerixafor alone): 8 cells/μL | Graft CD3+, median [3, 12]: 6e+08 kg⁻¹ | Graft CD4+, median [3, 12]: 3.6e+08 kg⁻¹ | Graft CD8+, median [3, 12]: 2.2e+08 kg⁻¹ | Graft CD19+, median [3, 12]: 1.5e+08 kg⁻¹ | Graft CD34+, median [3, 12]: 4.7e+06 kg⁻¹ | Graft CD56+, median [3, 12]: 4e+07 kg⁻¹ | Graft CD3+, median [3, 13]: 4.6e+08 kg⁻¹ | Graft CD4+, median [3, 13]: 3.2e+08 kg⁻¹ | Graft CD8+, median [3, 13]: 1.3e+08 kg⁻¹ | Graft CD34+, median [3, 13]: 2.9e+06 kg⁻¹ | Graft CD56+, median [3, 13]: 3e+07 kg⁻¹ | Graft CD19+, median ([3]; Devine et al, 2008, yield of 1 LP, plerixafor N = 24): 1e+08 kg⁻¹ | Peak CD34+ (#/μL) Median (CD34+ cells [4]; Part B, plerixafor alone, MGTA-145 dose 0): 26 #/μL | Peak CD34+ (#/μL) Median (CD34+ cells [4]; [14]): 26 #/μL | Percent ≥20/μL peak CD34+ (CD34+ cells [4]; [14]): 64% | Peak CD34+ (#/μL) Median (CD34+ cells [4]; Part C first day, plerixafor alone, MGTA-145 dose 0): 18 #/μL | Peak CD34+ (#/μL) Median (CD34+ cells [4]; [15]): 18 #/μL | Percent ≥20/μL peak CD34+ (CD34+ cells [4]; [15]): 0% | Percent ≥20/μL peak CD34+ (CD34+ cells [4]; Part C, pooled placebo + plerixafor on Day 2): 50% | Peak CD34+ (#/μL) Median (CD34+ cells [4]; Pooled B + C, plerixafor alone, MGTA-145 dose 0): 20 #/μL | Peak CD34+ (#/μL) Median (CD34+ cells [4]; [16]): 23 #/μL | Percent ≥20/μL peak CD34+ (CD34+ cells [4]; [16]): 56% | Tmax (time of the peak CD34+ level) Median (CD34+ cells [4]; plerixafor alone): 8 h | Peak CD34+/μL (FC vs. baseline) Median (CD34+ cells [4]; [17]): 15 | Peak CD34+/μL Median (CD34+ cells [4]; [17]): 20 µL⁻¹ | Patients with peak CD34+ ≥20 cells/μL (CD34+ cells [5]): 28% | Patients with peak CD34+ ≥40 cells/μL (CD34+ cells [5]): 4%

MGTA-145: CXCR2 agonist; truncated Gro-β with deletion of the first four N-terminal amino acids (SEQ ID NO: 2)
Fold increase of CD34+CD90+CD45RA− cells (CD34+CD90+CD45RA− cells [2]; [18]): ~8.3 fold | Peak concentration of CD34+CD90+CD45RA− cells (CD34+CD90+CD45RA− cells [2]; [18]): ~3 cells/μL | Time of peak CD34+CD90+CD45RA− mobilization post administration (CD34+CD90+CD45RA− cells [2]; MGTA-145 monotherapy, six doses): 30 min | Fold increase of CD34+CD90+CD45RA− cells (CD34+CD90+CD45RA− cells [2]; [19]): 2-3.5 fold | Peak concentration of CD34+CD90+CD45RA− cells (CD34+CD90+CD45RA− cells [2]; [19]): 1-1.6 cells/μL | Molar ratio MMP-9:TIMP-1 (MMP-9): rapid increase 30 minutes post-administration | Plasma levels of MMP-9 (MMP-9): increased sharply within 30 minutes post-administration | CD34+/kg, median (CD34+ cells [6]; [20]): 4.3 ×10^6 cells | Total CD34+ Yield, median (CD34+ cells [6]; [20]): 321 (239-500) ×10^6 cells | CD34+/kg, mean (CD34+ cells [6]; MGTA-145 0.03 mg/kg, 2 h stagger after plerixafor): 4.1 ×10^6 | Fold increase of CD34+ cells (CD34+ cells [4]; [18]): 7 fold | Peak concentration of CD34+ cells (CD34+ cells [4]; [18]): ~10 cells/μL | Time of peak CD34+ mobilization post administration (CD34+ cells [4]; MGTA-145 monotherapy, single dose, across the six doses 0.0075-0.3 mg/kg): about 30 minutes | Fold increase of CD34+ cells (CD34+ cells [4]; [19]): 2-3 fold | Peak concentration of CD34+ cells (CD34+ cells [4]; MGTA-145 monotherapy, the other doses (0.0075, 0.015, 0.075, 0.15, 0.3 mg/kg)): ~5 cells/μL | Peak CD34+ (#/μL) Median (CD34+ cells [4]; [21]): 12 #/μL | Percent ≥20/μL peak CD34+ (CD34+ cells [4]; [21]): 0% | Peak CD34+ (#/μL) Median (CD34+ cells [4]; [22]): 3 #/μL | Percent ≥20/μL peak CD34+ (CD34+ cells [4]; [22]): 0% | CD90+/kg (CD34+CD90+CD45RA− cells), mean (CD34+CD90+CD45RA− cells [7]; MGTA-145 0.03 mg/kg): 1.3 ×10^6 | CD90+/kg (CD34+CD90+CD45RA− cells), median (CD34+CD90+CD45RA− cells [7]; MGTA-145 0.03 mg/kg): 1.5 ×10^6 | CD90+ (% of CD34+) (CD34+CD90+CD45RA− cells [7]; MGTA-145 0.03 mg/kg, 0.03 mg/kg): 31% | CD90+/kg (CD34+CD90+CD45RA− cells), mean (CD34+CD90+CD45RA− cells [7]; MGTA-145 […]): 1.4 ×10^6 | CD90+/kg (CD34+CD90+CD45RA− cells), median (CD34+CD90+CD45RA− cells [7]; MGTA-145 […]): 1.2 ×10^6 | CD90+ (% of CD34+) (CD34+CD90+CD45RA− cells [7]; MGTA-145 […], […]): 37% | Potency of hematopoietic stem and progenitor cell mobilization [1]: potency superior to that of Gro-β by multiple orders of magnitude | Back pain/Musculoskeletal pain [8]: 19 n (%) | Subjects with any drug related TEAE [8]: 19 n (%) | Engraftment rates, secondary transplantation (CD45.2 mice): vastly improved engraftment rates | Initial plateau of WBC mobilization (white blood cells (WBCs); [23]): 6-10 ×10^3 cells/μL | Peak mobilization of WBCs (white blood cells (WBCs); [24]): 15-17 ×10^3 cells/μL | CXCR2 expression recovery prior to the second dose (CXCR2; MGTA-145 0.07 mg/kg, staggered dosing, two consecutive days): ~80 % of baseline | CXCR2 on peripheral neutrophils (CXCR2; MGTA-145 monotherapy): rapid downregulation of its target receptor, CXCR2, on peripheral neutrophils, followed by recovery over 24 hours | Initial plateau of neutrophil mobilization (neutrophils; [23]): 5-8 ×10^3 cells/μL | Peak mobilization of neutrophils (neutrophils; [24]): 13-15 ×10^3 cells/μL | Change relative to baseline of neutrophil activation marker CD66 ([9]; all doses except the highest (0.3 mg/kg)): < 2 fold | Change relative to baseline of neutrophil activation marker L-selectin ([9]; all six doses): < 2 fold | Change relative to baseline of neutrophil activation markers CD11b and CD18 ([9]; all six doses): < 2 fold

B1: G-CSF: standard mobilization agent, five days of Filgrastim (G-CSF) (protein, UniProt P09919 31-207, looked up)
Granulocyte …: TPLGPASSLPQSFLLKCLEQVRKIQGDGAALQEKLVSECATYKLCHPEELVLLGHSLGIPWAPLSSCPSQALQLAGCLSQLHSGLFLYQGLLQALEGISPELGPTLDTLQLDVADFATTIWQQMEELGMAPALQPTQGAMPAFASAFQRRAGGVLVASHLQSFLEVSYRVLRHLAQP
modifications: filgrastim
Graft CD3+, median [3, 12]: 2.5e+08 kg⁻¹ | Graft CD4+, median [3, 12]: 1.5e+08 kg⁻¹ | Graft CD8+, median [3, 12]: 7e+07 kg⁻¹ | Graft CD19+, median [3, 12]: 5e+07 kg⁻¹ | Graft CD34+, median [3, 12]: 4.2e+06 kg⁻¹ | Graft CD56+, median [3, 12]: 1e+07 kg⁻¹ | Graft CD3+, median [3, 13]: 1.3e+08 kg⁻¹ | Graft CD4+, median [3, 13]: 1.1e+08 kg⁻¹ | Graft CD8+, median [3, 13]: 4e+07 kg⁻¹ | Graft CD34+, median [3, 13]: 4.2e+06 kg⁻¹ | Graft CD56+, median [3, 13]: 2e+07 kg⁻¹ | TNC/kg donor weight, median (range) ([3]; G-CSF, N = 40 healthy donors, Singhal et al, BMT 2000): 7.2 (3.2-14.0) ×10^8 cells | Frequency of CD3+ T cells in graft, median [3, 25]: 45.3 % of CD45+ | Frequency of CD4+ T cells in graft, median [3, 25]: 29.8 % of CD45+ | Frequency of CD8+ T cells in graft, median [3, 25]: 11.8 % of CD45+ | Frequency of CD19+ B cells in graft, median [3, 25]: 10.5 % of CD45+ | Frequency of CD56+ NK cells in graft, median [3, 25]: 3.2 % of CD45+ | Frequency of Tregs in graft, median [3, 25]: 3.5 % of CD4+ T cells | Frequency of iNKT cells in graft, median [3, 25]: 0.04 % of CD3+ | Tolerability [10]: Majority with bone pain, | Increase in neutrophil activation markers [11]: ~2.7 fold
